Values of other authors in PubChem BioAssay AID1259409 (Chemical Carcinogenesis Research Information System (CCRIS), 2018).

Test system: rodent chemically induced tumor inhibition, incidence and multiplicity
Assay: CCRIS tumor inhibitor studies
Settings: Carcinogen: BETA-PROPIOLACTONE, 57-57-8, Promoter: NONE USED

O=S(=O)(O)c1ccc(S)cc1
tumour outcome (control, treated, inhibition, significance) (Dose [Inhibitor]: 40 UMOL IN 0.2 ML WATER 5 MIN PRIOR TO EACH CARCINOGEN DOSE (STUDY DURATION: 26 WK), Route [Inhibitor]: GAVAGE, Species: MOUSE, Strain/Sex: STRAIN-A/FEMALE, Target Tissue: Type of Lesion: FORESTOMACH: PAPILLOMA, Dose [Carcinogen]: 28 UMOL IN 0.1 ML WATER 2/WK FOR 10 WK): 100%, 57%, 43%, p<0.001 | tumour outcome (control, treated, inhibition, significance) (Dose [Inhibitor]: 70 UMOL IN 0.2 ML WATER BEGINNING 5 MIN PRIOR TO EACH CARCINOGEN DOSE (STUDY DURATION: 50 WK), Route [Inhibitor]: INTRARECTAL, Species: RAT, Strain/Sex: F344/MALE, Target Tissue: Type of Lesion: LARGE INTESTINE: ADENOMATOUS POLYP, Dose [Carcinogen]: 35 UMOL IN 0.1 ML PROPYLENE GLYCOL 2/WK FOR 6 WK): 100%, 21%, 79%, p<0.001
